The source of these data is patent US10292949B2, “Pharmaceutical composition comprising rimeporide for treating diseases associated with insulin resistance and β-cell dysfunction” (Merck Patent GmbH, priority 2008, dated 2019).

What all share (assay type): in vivo, rat
Data set [1] can be described thus: Pharmacological Study Report I: body weight of ZF (fa/fa) rats during 4 weeks of treatment. The following applies: age 8-12 weeks, Compound A 150 mg/kg gavage twice daily, Compound B 40 mg/kg/day in chow. How it is done:
(§1) Obese, insulin resistant ZF (fa/fa) rats, which are treated from the age of 8-12 weeks, were used as IR model. Rats were housed with a 12-h light/dark cycle and free access to food and water unless otherwise noted. Studies were approved by the Institutional Animal Care and Use Committee. There were a total of 18 animals in the study (8 week-old males, provided by Charles River). Animals were randomized into 3 groups (vehicle group, Compound A group, Compound B group, n=6 per group) based on random glucose level at the beginning of the study: • Group 1: ZF rats (fa/fa) (n=6), compound A (150 mg/kg via gavage) • Group 2: ZF rats (fa/fa) (n=6), compound B (40 mg/kg/day as admixture to the chow) • Group 3: ZF rats (fa/fa) (n=6), vehicle treatment (control chow, vehicle gavage)
(§2) Group 1 and 3 animals were treated with compound A or vehicle (water) for 4 weeks (from age 8-12 weeks) via oral gavage, twice daily. Chow containing compound B was fed to Group 2 ad lib. Group 1 and Group 3 were fed with chow without compound B ad lib.

For data set [2], the system named is obese Zucker fa/fa rats. The data set can be described thus: Pharmacological Study Report II: random and fasting (4 h) blood glucose and plasma insulin levels. The following applies: Mean ± SD; for Change in Insulin (fasting): change over the 4 week treatment period; for Week 4 Insulin (fasting): week 4 of treatment. As for the experimental part: (§3) Thirty-six obese Zucker fa/fa and six lean Zucker fa/? male rats obtained from Charles River, were housed under normal vivarium conditions on a 12 hour light/dark cycle. The rats were kept two to a cage with food and water available ad lib, except during the weekly, 4 hour fasts. Water continued to be available during these fasts.
(§4) Compound A corresponds to Cariporide. Compound B corresponds to 2-Methyl-4,5-di-(methylsulfonyl)-benzoyl-guanidine hydrochloride hydrate. Compounds A and B were supplied in powder form by Merck Serono. Drugs were incorporated into a pelleted diet (LabDiet, 5001) by Research Diets, Inc (New Brunswick, N.J.) at concentrations of 0.44 g/kg or 0.88 g/kg of diet to yield approximate doses of 40 or 80 mg/kg. The concentration was calculated based on the assumption that a 300 g rat would eat about 30 g/d of chow. The same chow, but without drug, was fed to rats of both the lean and fa/fa control group animals.
(§5) One week prior to the start of the study, all rats were weighed. After a 4 hour fast, a blood sample was obtained for the determination of blood glucose, insulin, and glycosylated hemoglobin levels (HbA1c). Animals were then sorted on the basis of these parameters into the groups listed below. Rats were eight weeks of age at the onset of treatment.
(§6) • 1. ZF rats (fa/fa) (n=6) chow without drug • 2. ZF rats (fa/fa) (n=6) compound A (40 mg/kg/day) • 3. ZF rats (fa/fa) (n=6) compound A (80 mg/kg/day) • 4. ZF rats (fa/fa) (n=6) compound B (40 mg/kg/day) • 5. ZF rats (fa/fa) (n=6) compound B (80 mg/kg/day) • 6. lean Zucker rats (fa/?) (n=6) chow without drug Dosing Regime
(§7) Treatment appropriate chow was continuously available for 4 weeks except during scheduled 4 h fasts conducted once per week.
Both random and fasting (4 h) blood glucose levels were determined using a hand-held glucometer (OneTouch Ultra, Lifescan, Inc. Milapitas, Calif.) on blood obtained from tail capillary samples. Plasma insulin levels were determined by a rat specific ELISA (Ultra Sensitive Rat Insulin ELISA Kit, Crystal Chem, Inc., Chicago, Ill.). The 4 h fast period started at 9 a.m. and ended after a blood draw at 1 p.m.

A short description of data set [3]: Pharmacological Study Report II: body weight and food intake. The following applies: for Average food consumption, Week 1 / Average food consumption, Week 2 / Average food consumption, Week 3 / Average food consumption, Week 4: fa/fa rats, average +/- SD. How it is done: as §3, §4, §5, §6, §7
individual body weights were determined once per week. Average food intake per cage was also determined once per week and the individual rat consumption was calculated by dividing the cage average by 2 (rats housed 2/cage).

The subject of data set [4] is obese Zucker fa/fa rats. The data set can be described thus: Pharmacological Study Report II: HbA1c levels. The following applies: Mean ± SD; for Base line HbA1c: baseline; for Change in HbA1c: change over the 4 week treatment period; for Week 4 HbA1c: week 4 of treatment. How it is done:
as §3, §4, §5, §6, §7
HbA1c level were determined using a DCA 2000 analyzer (Bayer Healthcare LLC, Elkhart Ind.) prior to beginning the study and again at the end of the 4th week treatment period.

Data set [5] has as its system Obese, insulin resistant ZF (fa/fa) rats. Description: Pharmacological Study Report I: deuterated glucose disposal test (2H-GDT). The following applies: 4 weeks, Compound B 40 mg/kg/day in chow. As for the experimental part:
as §1, §2
Rats underwent a 4 hour fast. […] At t=0, the blood glucose concentrations were determined with a glucometer, and a blood sample was obtained for determination of base line insulin and H2O^18 dilution. […]
One hundred micro liter aliquots of plasma samples inside the cape of an inverted vial were placed in a heating blocked filled with glass beads at 70° C. overnight and the water distillate inside the vial was collected. The deuterium and oxygen-18 isotope ratios of the blood of plasma samples were determined using a Thermo Finnigan High Temperature Conversion/Elemental Analyzer coupled with a Thermo Finnigan MAT 253 IRMS via a Conflo-III Interface. […] The deuterium isotope abundance is first calculated in δ 2H values relative to the international VSMOW standard, and then transformed to APE by using a calibration curve of standards with known enrichments. The ^2H2O enrichment was calculated for rats at 30 min after the glucose load. ^2H2O enrichment was converted to mmoles by multiplying enrichment by the TBW pool size and dividing by 20 (MW ^2H2O). […]

Counter-ions that a name gives are not always drawn.

For the compound `[H]/N=C(\N)NC(=O)c1cc(S(C)(=O)=O)c(S(C)(=O)=O)cc1C` [Compound B, 2-Methyl-4,5-di-(methylsulfonyl)-benzoyl-guanidine hydrochloride hydrate], in data set [1], the “Body weight, difference among vehicle- and compound-treated groups” value was “no significant differences”. Besides, the “Baseline Insulin (fasting)” value in the data set with obese Zucker fa/fa rats [2] (40 mg/kg group) turned out to be 14.7 ± 2.7 ng/mL; with obese Zucker fa/fa rats [2] (80 mg/kg group), 16.2 ± 11.2 ng/mL. Further, the figures for the “Change in Insulin (fasting)” value in the data set on obese Zucker fa/fa rats [2] (40 mg/kg) and with obese Zucker fa/fa rats [2] (80 mg/kg) were -0.2 ± 4.4 ng/mL and -3.2 ± 11.2 ng/mL, respectively. In addition, the “Week 4 Insulin (fasting)” value in the data set with obese Zucker fa/fa rats [2] (40 mg/kg in chow) amounted to 14.5 ± 5.5 ng/mL; in the data set with obese Zucker fa/fa rats [2] (80 mg/kg in chow), 13.1 ± 8.2 ng/mL. For the same compound, the “Average weekly food intake vs chow fed fa/fa controls” value in data set [3] (Zucker fa/fa rats, 4 weeks, 40 or 80 mg/kg in chow) is on record as “did not differ significantly”. In addition, the “Average food consumption, Week 1” value is on record as 32.1 +/− 3.2 grams in data set [3] (40 mg/kg in chow) and 31.8 +/− 1.4 grams in data set [3] (80 mg/kg in chow). Moreover, the “Average food consumption, Week 2” value is 33.8 +/− 2.9 grams in data set [3] (40 mg/kg in chow) and 32.9 +/− 1.9 grams in data set [3] (80 mg/kg in chow). For the same compound, the “Average food consumption, Week 3” value in data set [3] (40 mg/kg in chow) is 31.7 +/− 2.9 grams; in data set [3] (80 mg/kg in chow) it was 33.0 +/− 0.7 grams. Moreover, the “Average food consumption, Week 4” value is listed as 33.6 +/− 4.4 grams in data set [3] (40 mg/kg in chow) and 34.0 +/− 2.9 grams in data set [3] (80 mg/kg in chow). Moreover, the “Base line HbA1c” value in the data set with obese Zucker fa/fa rats [4] (40 mg/kg group) is 3.8 ± 0.2%; with obese Zucker fa/fa rats [4] (80 mg/kg group), 4.0 ± 0.4%. Moreover, the results for the “Change in HbA1c” value in the data set with obese Zucker fa/fa rats [4] (40 mg/kg) and with obese Zucker fa/fa rats [4] (80 mg/kg) were 0.4 ± 0.2% and 0.8 ± 0.7%, respectively. In addition, the “Week 4 HbA1c” value turned out to be 4.3 ± 0.3% in the data set on obese Zucker fa/fa rats [4] (40 mg/kg in chow) and 4.8 ± 0.4 % in the data set on obese Zucker fa/fa rats [4] (80 mg/kg in chow). In addition, the “Insulin sensitivity (% 2H2O recovery per insulin AUC), increase compared to pre-treatment values” in data set [5] was about 4 fold.
